Experimental data as given in US20210268070A1, “Use of Immunomodulators to Control Infection and Stimulate Healing in Normal and Diabetic Wounds” (priority 2018, published 2021).

Columns and labels:
USA300 MRSA = assay: Implant model of infection with USA300 MRSA; format: in vivo
Experimental: (§1) The implant model of infection in C57B mice was used for 10^6 PA103 (FIG. 2A) or 10^6 USA300 MRSA (FIG. 2C). The wound model of infection was used for 10^6 PA103 in C57BL mice (FIG. 2B) or diabetic db/db mice (FIG. 2D). Infection was carried out at the time of surgery by adding bacteria directly to the surgical sites. Immunomodulators, namely, LPS (10 ng or 100 ng), fMLP (10 ng or 100 ng), CCL3 (1 μg) were added topically at the surgical sites at the time of surgery & infection. GM-CSF (10 μg/kg), tobramycin (Tob at 3.5 mg/kg), and vancomycin (40 mg/kg) were added systemically by i.p. injection 1 h before surgical implantation and infection. Infection levels were determined 24 h following infection (N>4 animals/group; NS=not significant, * p<0.01, ** p<0.001, ***p<0.0001 One-way ANOVA).
(§2) (15A) C57BL/6 mice received 40 mg/kg prophylaxis (Sys) vancomycin (Vanc) or 3.5 mg/kg tobramycin (Tobra) by i.p. injection. (15A) 1 h after antibiotic administration, 106 CFU of USA300 was added to implant after insertion into facia (Implant Model). (15B) 1 h after antibiotic administration, 10^6CFU of USA300 or 106CFU PA103 (Pa) were added full-thickness wounds in of C57BL/6 (Wound Model). Infection levels at implant surgical site (Tissue & Implant) or a distant site (Spleen), or wound tissues were assessed 24 h following infection. (N>4 animals/group, * p<0.01, ***p<0.0001, One-way ANOVA).
(§3) We assessed these immunomodulators for their ability to control wound and/or implant SS's in normal (C57BL/6) or diabetic (db/db) mice. We acknowledge that diabetic individuals are not as immunocompromised as other immunocompromised patient groups. […] All immunomodulators were added locally at the surgical sites at the time of infection, except GM-CSF (10 μg/kg) which was administered systemically by i.p. injection 1 h prior to surgery per its FDA-approved route of delivery. […] CCL3 and GM-CSF are also tested using the implant model of infection. Here, we tested CCL3 and GM-CSF in the wound model of infection in C57B mice.
(§4) Implant surgery and wound surgery and surgical site infection are performed according to the following method. On the day of surgery, all mice are anesthetized by an intraperitoneal injection of a ketamine/xylazine mixture (90 mg/kg ketamine+5 mg/kg xylazine for mice). The back of the animals is shaved using an electric shave and scrubbed with alcohol swabs 3 times, a topical antiseptic solution (Hibiclens; chlorhexidine gluconate) is applied to the skin. The surgical procedures are performed with sterile instruments, sterile surgical gloves, and aseptic techniques as follows. For wound surgical procedure, a sterile biopsy punch (5-7 mm diameter) is used to punch through the full thickness of the back skin below the shoulder blades. […]

P. aeruginosa PA103 [1] = assay: Wound model of infection with PA103 in normal (C57BL) mice; format: in vivo
Experimental: as §1, §2, §3
Implant surgery and wound surgery and surgical site infection are performed according to the following method. On the day of surgery, all mice are anesthetized by an intraperitoneal injection of a ketamine/xylazine mixture (90 mg/kg ketamine+5 mg/kg xylazine for mice). The back of the animals is shaved using an electric shave and scrubbed with alcohol swabs 3 times, a topical antiseptic solution (Hibiclens; chlorhexidine gluconate) is applied to the skin. The surgical procedures are performed with sterile instruments, sterile surgical gloves, and aseptic techniques as follows. For wound surgical procedure, a sterile biopsy punch (5-7 mm diameter) is used to punch through the full thickness of the back skin below the shoulder blades. Four 5-7 mm skin wounds are made on the back of each mouse. Wounds placed in this area cannot be reached by the animals and therefore are protected from self-licking. For implant surgery, a 4-mm long lateral skin incision is made on the upper back, and the skin is retracted. The space above the muscle is opened using blunt dissection with fine forceps, to create a rostral fascia indentation. Then, immunomodulators at indicated concentrations (in a 20 μL volume) or PBS control are injected into the fascia indentation.

MRSA = assay: Normal wound model of MRSA infection; format: in vivo; details: FIG. 6B
Experimental: as §3, §4

P. aeruginosa PA103 [2] = assay: Implant model of infection with PA103; format: in vivo; details: prophylaxis tobramycin 3.5 mg/kg i.p. 1 h before implantation and infection, FIG. 2A
Experimental: as §1, §3
as §4, with “follows.” for “follows. For wound surgical procedure, a sterile biopsy punch (5-7 mm diameter) is used to punch through the full thickness of the back skin below the shoulder blades.”

leukocytes = assay: Leukocyte migration (H&E staining) and activation (MPO ELISA) in normal wound; format: in vivo, C57B mice; details: compared to PBS, FIGS. 10A-10D
From the text: FIGS. 10A-10D illustrate that immunomodulatory treatment enhances leukocyte migration and neutrophil activation in a normal wound. (10A, 10B—CCL3, 10C—LPS, fMLF, 10D—GM-CSF), N=4; Significance determined as compared to PBS *<0.05, **p<0.01, ***p<0.001.
We next examined the impact of CCL3 topical treatment on leukocyte migration by H&E staining, and on leukocyte activation by myeloperoxidase (MPO) measurements by ELISA. (MPO is primarily used as a marker for neutrophil activation but it can also be expressed to lesser extent in macrophages).

## CN[C@H](CC(C)C)C(=O)N[C@H]1C(=O)N[C@@H](CC(N)=O)C(=O)N[C@H]2C(=O)N[C@H]3C(=O)N[C@H](C(=O)N[C@H](C(=O)O)c4cc(O)cc(O)c4-c4cc3ccc4O)[C@H](O)c3ccc(c(Cl)c3)Oc3cc2cc(c3O[C@@H]2O[C@H](CO)[C@@H](O)[C@H](O)[C@H]2O[C@H]2C[C@](C)(N)[C@H](O)[C@H](C)O2)Oc2ccc(cc2Cl)[C@H]1O [vancomycin]
USA300 MRSA; C57BL/6 mice, prophylaxis antibiotic i.p. 1 h before 10^6 CFU USA300, 24 h following infection, FIG. 15A
  infection levels at implant surgical site (Tissue & Implant) or a distant site (Spleen): effective
USA300 MRSA; prophylaxis vancomycin 40 mg/kg i.p., FIG. 15A & 2C
  bacterial loads on implants as compared to implants treated with immunomodulators: significantly higher

## IL-1β: pro-inflammatory cytokine interleukin-1 (SEQ ID NO: 11, precursor)
P. aeruginosa PA103 [1]; C57B mice, immunomodulator added locally at time of infection, compared to PBS, FIGS. 3A, 4A, 4B, 6A
  infection control against P. aeruginosa PA103 in normal wounds: effective
MRSA
  controlling MRSA infection in normal wound model: effective

## NC[C@H]1O[C@H](O[C@H]2[C@H](O)[C@@H](O[C@H]3O[C@H](CO)[C@@H](O)[C@H](N)[C@H]3O)[C@H](N)C[C@@H]2N)[C@H](N)C[C@@H]1O [tobramycin]
P. aeruginosa PA103 [2]
  bacterial loads on implants as compared to implants treated with immunomodulators: significantly higher
P. aeruginosa PA103 [1]; C57BL/6 mice, 3.5 mg/kg i.p. 1 h before 10^6 CFU PA103, 24 h following infection, FIG. 15B
  infection levels in wound tissues after prophylaxis antibiotic: effective

## Granulocyte-macrophage colony-stimulating factor [GM-CSF]
P. aeruginosa PA103 [1]; C57BL mice, 10^6 PA103, systemic 10 μg/kg i.p. 1 h prior to surgery, 24 h, FIG. 2B
  PA103 infection in wounds as compared to PBS-treated wounds: significantly reduce
P. aeruginosa PA103 [1]; systemic GM-CSF 10 μg/kg i.p., FIG. 2B
  reduction of PA103 infection in wounds, compared with CCL3 or tobramycin: not as effective
leukocytes
  leukocyte migration and neutrophil activation in a normal wound: enhances
